According to ChEMBL document CHEMBL6114956, “Design, synthesis, and evaluation of the pharmacological activity of novel NMDA receptor antagonists based on the germacrone scaffold” (2025):
Calls of active or inactive are those of the source. The calls are words filed in the database; no cut-off is given here.

Legend:
PC-12 [1] = experiment: Neuroprotective activity against NMDA-induced cell injury in rat PC12 cells at 0.05 uM incubated for 12 hrs by MTT assay relative to control; assay type: functional
PC-12 [2] = experiment: Neuroprotective activity against NMDA-induced cell injury in rat PC12 cells at 0.5 uM incubated for 12 hrs by MTT assay relative to control; assay type: functional
PC-12 [3] = experiment: Neuroprotective activity against NMDA-induced cell injury in rat PC12 cells at 5 uM incubated for 12 hrs by MTT assay relative to control; assay type: functional
[4] = molecular target: Glutamate NMDA receptor (Rattus norvegicus) (UniProt P35439+Q00959+Q00960+Q00961+Q62645+Q8VHN2+Q9R1M7); experiment: Antagonist activity at NMDAR in rat PC12 cells assessed as inhibition of NMDA-induced Ca2+ influx at 0.05 uM preincubated for 6 hrs followed by NMDA addition measured for 1 to 3 mins by Fluo-4 AM staining based analysis; assay type: cell-based; conditions: filed as antagonist, time 361-363 min

Row | Compound | Activity (PC-12 [1]) | Activity (PC-12 [2]) | Activity (PC-12 [3]) | Activity [4]
1 | CC(C(O)c1ccc(O)cc1)N1CCC(Cc2ccccc2)CC1 (stereo not given) [IFENPRODIL] | 18.31% | 22.57% | 31.16% | 
2 | CC(C)=C1C/C=C(/C)CC/C=C(\C)CC1OC(=O)[C@@H](C)NC(=O)c1ccc(F)cc1 (stereo not given in full) | 13.93% | 9.33% | 12.32% | 
3 | CC(C)=C1C/C=C(/C)CC/C=C(\C)CC1OC(=O)[C@H](C)NC(=O)c1ccc(O)cc1 (stereo not given in full) | 12.86% | 10.31% | -2.01% | 
4 | CC(C)=C1C/C=C(/C)CC/C=C(\C)CC1OC(=O)[C@H](C)NC(=O)c1ccc(F)cc1 (stereo not given in full) | 15.35% | 12.7% | 16.47% | 
5 | CC(C)=C1C/C=C(/C)CC/C=C(\C)CC1OC(=O)[C@@H]1CCC2=Nc3ccc(Cl)cc3CN21 (stereo not given in full) | 28.73% | 28.87% | 25.35% | 
6 | CC(C)=C1C/C=C(/C)CC/C=C(\C)CC1OC(=O)[C@@H](C)NC(=O)c1ccc(O)cc1 (stereo not given in full) | 15.74% | 15.08% | 11.03% | 
7 | CC(C)=C1C/C=C(/C)CC/C=C(\C)CC1OC(=O)[C@@H]1CCC2=Nc3ccc(Br)cc3CN21 (stereo not given in full) | 23.62% | 28.02% | 29.37% | 
8 | CC(C)=C1C/C=C(/C)CC/C=C(\C)CC1OC(=O)[C@@H](C)NC(=O)c1ccc(Cl)cc1 (stereo not given in full) | 15.03% | 16.58% | 5.32% | 
9 | CC(C)=C1C/C=C(/C)CC/C=C(\C)CC1OC(=O)[C@@H]1CCC2=Nc3ccccc3CN21 (stereo not given in full) | 29.63% | 26.17% | 24.42% | Active; Compound Activity Was Superior To Ifenprodil
10 | CC(C)=C1C/C=C(/C)CC/C=C(\C)CC1=O | 14.66% | 2.94% | -4.79% | Active
11 | CC(C)=C1C/C=C(/C)CC/C=C(\C)CC1OC(=O)[C@H](C)NC(=O)c1ccc(Cl)cc1 (stereo not given in full) | 14.06% | 15.27% | 11.25% | 
